This assay concerns the target Alpha-glucosidase MAL62 (Saccharomyces cerevisiae, UniProt P07265). The assay can be described thus: Inhibition of baker's yeast alpha-glucosidase using p-nitrophenyl-alpha-D-glucopyranoside as substrate by spectrophotometry.
Sequence of Alpha-glucosidase MAL62 (P07265 whole entry): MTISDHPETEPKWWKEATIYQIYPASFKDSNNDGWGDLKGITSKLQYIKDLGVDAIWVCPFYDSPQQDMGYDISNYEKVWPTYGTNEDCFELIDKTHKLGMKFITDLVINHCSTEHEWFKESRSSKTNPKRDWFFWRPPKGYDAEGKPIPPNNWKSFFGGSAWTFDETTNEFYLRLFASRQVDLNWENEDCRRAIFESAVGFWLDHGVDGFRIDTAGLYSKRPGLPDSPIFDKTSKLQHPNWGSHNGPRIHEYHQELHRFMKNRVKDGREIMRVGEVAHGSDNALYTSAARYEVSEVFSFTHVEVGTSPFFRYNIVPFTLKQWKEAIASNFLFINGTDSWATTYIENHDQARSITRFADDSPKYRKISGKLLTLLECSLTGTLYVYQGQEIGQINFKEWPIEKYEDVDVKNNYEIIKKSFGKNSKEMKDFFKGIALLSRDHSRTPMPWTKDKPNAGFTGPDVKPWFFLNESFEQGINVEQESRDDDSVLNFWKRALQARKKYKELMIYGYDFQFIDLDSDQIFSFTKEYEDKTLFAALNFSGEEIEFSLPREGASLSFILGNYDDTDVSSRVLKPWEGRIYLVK
`O=c1c(O)c(-c2cc(O)c(O)c(O)c2)oc2cc(O)cc(O)c12` had an IC50 of 5 µM.

In the case of `O=C1C[C@@H](c2ccc(O)cc2)Oc2cc(O)cc(O)c21`, the IC50 turned out to be 75 µM.

In turn, `O=c1c(-c2ccc(O)cc2)coc2cc(O)ccc12` displayed a half-maximal inhibitory concentration (IC50) of 14 µM.

The compound `O=c1cc(O)cc2oc(-c3ccc(O)c(O)c3)c(O)cc1-2` gave an IC50 of 4 µM.

For `CC1(C)C=Cc2cc(C(=O)/C=C/c3ccc(O)c(O)c3)c(O)cc2O1`, the IC50 stood at 19.1 µM.

Take `O=C(O)/C=C/c1ccc(F)cc1`: the half-inhibitory concentration (IC50) stood at 270 µM.

In turn, `C=C(C)C(CC=C(C)C)Cc1c(O)cc(OC)c2c1OC(c1ccc(OC)cc1O)CC2=O` (stereo not drawn) had an IC50 of 155 µM.

In turn, `CC(C)=CCc1cc(C2CCc3ccc(O)cc3O2)c(CC=C(C)C)c(O)c1O` (stereo not drawn) displayed an IC50 of 12 µM.

In the case of `COc1cc(O)c(C(C)=C(C)C)c2c1C(=O)CC(c1ccc(O)cc1)O2` (stereo not drawn), 358 µM corresponded to half-maximal inhibition (IC50).

`C=C(C)C(CCC(C)(C)O)Cc1c(O)cc(OC)c2c1OC(c1ccc(O)cc1O)CC2=O` (stereo not drawn) returned an IC50 of 179 µM.

In turn, `C=C(C)C(CC=C(C)C)Cc1c(O)cc(O)c2c1OC(c1ccc(O)cc1O)CC2=O` (stereo not drawn) had an IC50 of 37 µM.

As for `C=C(C)C(CC=C(C)C)Cc1c(O)cc(O)c2c1OC(c1ccccc1O)CC2=O` (stereo not drawn), the midpoint of inhibition, the IC50, lay at 45 µM.

As for `C=CC(C)(C)c1c(O)cc(O)c2c(=O)c3oc4c5c(c(OCC=C(C)C)cc4c3oc12)OC(C)(C)C=C5`, the IC50 was found to be 27.6 µM.

As to `OC[C@H]1OC(OC2=C(c3cc(O)c(O)c(O)c3)Oc3cc(O)cc(O)c3C2)[C@@H](O)[C@@H](O)[C@@H]1O` (stereo partly drawn), the concentration for half-maximal inhibition (IC50) was found to be 30 µM.

Compound `O=C(O)/C=C/c1ccc(Oc2ccccc2)cc1` had an IC50 of 440 µM.

`COc1cccc(/C=C/C(=O)O)c1` gave an IC50 of 579 µM.

Regarding `C=CC(C)(C)c1cc2c(cc1O)OC(c1cc(O)c(O)c(CC=C(C)C)c1C/C=C\C)CC2` (stereo not drawn), inhibition was half-maximal at 10.6 µM (IC50).

Take `C=C(C)C(CC=C(C)C)Cc1c(O)cc(OC)c2c1OC(c1ccc(O)cc1O)CC2=O` (stereo not drawn): the IC50 stood at 68.1 µM.

Consider `C=CC(C)(C)c1c(O)cc(O)c2c(=O)c3oc4c(CC=C(C)C)c(O)c(OCC=C(C)C)cc4c3oc12`, for which the IC50 stood at 33.3 µM.

In the case of `OC[C@H]1OC(OC2=C(c3ccc(O)c(O)c3)Oc3cc(O)cc(O)c3C2)[C@@H](O)[C@@H](O)[C@@H]1O` (stereo partly drawn), it took 20 µM to reach half-maximal inhibition (IC50).

In turn, `CC(C)=CCc1c(C2CCc3ccc(O)cc3O2)cc2c(c1O)OC(C)(C)C=C2` (stereo not drawn) showed an IC50 of 26.3 µM.

For `O=c1c(O)c(-c2ccc(O)cc2)oc2cc(O)cc(O)c12`, the IC50 worked out at 12 µM.

`O=c1c(O)c(-c2ccc(O)cc2O)oc2cc(O)cc(O)c12` [2-(2,4-dihydroxyphenyl)-3,5,7-trihydroxychromen-4-one] registered an IC50 of 40 µM.

The compound `O=c1c(O)c(-c2ccc(O)c(O)c2)oc2cc(O)cc(O)c12` [2-(3,4-dihydroxyphenyl)-3,5,7-trihydroxy-chromone;hydrate] came in with an IC50 of 7 µM.

`O=c1c(O)c(-c2ccc(O)c(O)c2)oc2cc(O)ccc12` [2-(3,4-dihydroxyphenyl)-3,7-dihydroxy-chromen-4-one] had an IC50 of 13 µM.

Take `O=c1cc(-c2ccc(O)c(O)c2)oc2cc(O)cc(O)c12` [2-(3,4-dihydroxyphenyl)-5,7-dihydroxy-4H-chromen-4-one]: the midpoint of inhibition, the IC50, lay at 21 µM.

Regarding `C=CC(C)(C)c1c(O)cc(O)c2c(=O)c(O)c(-c3cc(O)c(O)c(CC=C(C)C)c3)oc12` [2-[3,4-Dihydroxy-5-(3-methyl-but-2-enyl)-phenyl]-8-(1,1-dimethyl-allyl)-3,5,7-trihydroxy-chromen-4-one], inhibition was half-maximal at 3.6 µM (IC50).

Compound `COc1ccc(/C=C/C(=O)O)cc1` [3-(4-methoxyphenyl)acrylic acid] gave an IC50 of 40 µM.

`CC1(C)C=Cc2cc(C(=O)/C=C/c3ccc(O)cc3)c(O)cc2O1` [4-HYDROXYISOLONCHOCARPIN] gave an IC50 of 12.3 µM.

`CCOC(=O)/C=C/c1ccc(OC)cc1` [4-Methoxy Ethyl Cinnamate] yielded an IC50 of 50 µM.

The compound `CC(C)=CCc1cc(C2CCc3ccc(O)cc3O2)cc(O)c1O` (stereo not drawn) [5-(7-Hydroxy-chroman-2-yl)-3-(3-methyl-but-2-enyl)-benzene-1,2-diol] came in with an IC50 of 75.7 µM.

Consider `O=C(O)/C=C/c1cccc(O)c1` [(2E)-3-(3-hydroxyphenyl)prop-2-enoic acid], for which the IC50 is 1270 µM.

`COc1ccc([C@@H]2CC(=O)c3c(O)cc(O)cc3O2)cc1O` [(2S)-5,7-dihydroxy-2-(3-hydroxy-4-methoxyphenyl)-3,4-dihydro-2H-1-benzopyran-4-one] showed an IC50 of 150 µM.

Compound `CC(C)=CCc1cc(C(=O)/C=C/c2ccc(O)cc2)c(O)cc1O` [BROUSSOCHALCONE B] returned an IC50 of 11.1 µM.

`Oc1cc(O)c2c(c1)O[C@H](c1ccc(O)c(O)c1)[C@@H](O)C2` [CHEBI:23053]: half-maximal inhibition (IC50) was put at 130 µM.

Take `O=C(O)/C=C/c1ccc(Cl)cc1` [CHEBI:61116]: the IC50 was 390 µM.

Turning to `CC(C)=CCc1cc(-c2oc3cc(O)c(CC=C(C)C)c(O)c3c(=O)c2O)cc(O)c1O` [CHEBI:66727], the IC50 came out at 2.1 µM.

`Oc1cc(O)c2c(c1)O[C@H](c1cc(O)c(O)c(O)c1)[C@H](O)C2` [CHEBI:71224] showed an IC50 of 75 µM.

Regarding `O=C(O)c1cc(O)c(O)c(O)c1` [Gallic Acid, F], it took 5.2 µM to reach half-maximal inhibition (IC50).

In turn, `O=c1c(-c2ccc(O)cc2)coc2cc(O)cc(O)c12` [Prunetol] registered an IC50 of 7 µM.

For `CC(C)=CCc1cc(C(=O)/C=C/c2ccc(O)c(O)c2)c(O)cc1O` [broussochalcone A], the half-inhibitory concentration (IC50) stood at 5.3 µM.

As for `O=C(O[C@@H]1Cc2c(O)cc(O)cc2O[C@@H]1c1cc(O)c(O)c(O)c1)c1cc(O)c(O)c(O)c1` [epigallocatechin gallate], the IC50 turned out to be 2 µM.

`O=C(O)/C=C/c1ccc(O)cc1` [p-Coumaric Acid] came in with an IC50 of 200 µM.

For orientation: IC50 means the midpoint of a concentration-inhibition curve.

For the origin of these results see BindingDB's records for doi:10.1007/s00044-011-9938-0 (n/a, 2012).
